Test results taken from paper PMC11233931, “Remodeling tumor‐associated macrophage for anti‐cancer effects by rational design of irreversible inhibition of mitogen‐activated protein kinase‐activated protein kinase 2” (MedComm, 2024).

Key:
[1] = test system: TNF-α, IL-6 and IL-1β mRNA in THP-1 cell-line-derived macrophage; experiment: RT-PCR of cytokine mRNA in LPS-stimulated THP-1 derived macrophages; format: cell-based, human; settings: THP-1 derived macrophage; 3 h pre-treatment, LPS 100 ng/mL 3 h
Source text: MK2 is recognized for inducing the production of pathological cytokines that fuel inflammation, including IL‐6, TNF‐α, and IL‐1β. These cytokines are the classic downstream target gene of MK2 and are identified as significant contributors to the risk of inflammation‐driven cancer,[34], [35], [36] such as colorectal cancer and hepatocellular carcinoma. Therefore, we assessed the transcriptional levels of these typical downstream cytokines in human monocytic THP‐1 cell‐line‐derived macrophage and the mouse RAW264.7 macrophage cell line under the influence of compound 11. […] Taken together, our findings corroborate that compound 11 effectively impedes the transcription and production of these key MK2 downstream pro‐inflammatory cytokines.
FIGURE 4 Targeting cellular MK2 signaling with irreversible inhibition by compound 11. […] (C) The inhibitory effects of compound 11 on TNF‐α and IL‐6 production in LPS‐stimulated RAW264.7 macrophages for 24 h, measured by ELISA. […]
Total RNA was extracted from cultured cells using the EZ‐press RNA Purification Kit (EZBioscience). Complementary DNA was synthesized using the ABScript III RT Master Mix for qPCR with gDNA remover (ABclonal Technology) and was quantified with primers listed in Table S5. The relative mRNA expression levels were quantified through qPCR using the SYBR green gene expression assay (ABclonal Technology).

MK2 = MK2 (Homo sapiens, UniProt P49137); experiment: Kinase kinetic analysis of irreversible inhibition (Mobility Shift Assay, preincubation then 100-fold dilution); format: biochemical; settings: preincubation at 100 times the IC50, monitored continuously
Source text: To assess its role as an irreversible MK2 kinase inhibitor, we conducted a kinetic study on compound 11. The well‐known reversible ATP‐competitive MK2 inhibitor, PF‐3644022, served as a negative control. […] The kinase‐inhibitor mixture was subsequently diluted by a factor of 100 with a reaction buffer that included both substrate peptide and ATP. Under these circumstances, the activity of MK2 kinase was continuously monitored by assessing the phosphorylated substrate percentage. […] The enzyme activity curve almost overlapped with the curve of background group, which included only the substrate peptide without inhibitors and MK2 kinase.
In the kinase kinetic analysis to elucidate the irreversible inhibition of MK2 by compound 11, a Mobility Shift Assay was conducted. […] The EZ Reader (Caliper Life Sciences, MA) was then used to assess the kinase activity of the mixture, which was monitored continuously for 1 hour.

TTK = target: T1, TTK (Homo sapiens, UniProt P33981); experiment: Eurofins kinase selectivity profile, TTK; format: biochemical
T1 construct: purchased Eurofins (Celle Lévescault)
T1 sequence (P33981 1-857): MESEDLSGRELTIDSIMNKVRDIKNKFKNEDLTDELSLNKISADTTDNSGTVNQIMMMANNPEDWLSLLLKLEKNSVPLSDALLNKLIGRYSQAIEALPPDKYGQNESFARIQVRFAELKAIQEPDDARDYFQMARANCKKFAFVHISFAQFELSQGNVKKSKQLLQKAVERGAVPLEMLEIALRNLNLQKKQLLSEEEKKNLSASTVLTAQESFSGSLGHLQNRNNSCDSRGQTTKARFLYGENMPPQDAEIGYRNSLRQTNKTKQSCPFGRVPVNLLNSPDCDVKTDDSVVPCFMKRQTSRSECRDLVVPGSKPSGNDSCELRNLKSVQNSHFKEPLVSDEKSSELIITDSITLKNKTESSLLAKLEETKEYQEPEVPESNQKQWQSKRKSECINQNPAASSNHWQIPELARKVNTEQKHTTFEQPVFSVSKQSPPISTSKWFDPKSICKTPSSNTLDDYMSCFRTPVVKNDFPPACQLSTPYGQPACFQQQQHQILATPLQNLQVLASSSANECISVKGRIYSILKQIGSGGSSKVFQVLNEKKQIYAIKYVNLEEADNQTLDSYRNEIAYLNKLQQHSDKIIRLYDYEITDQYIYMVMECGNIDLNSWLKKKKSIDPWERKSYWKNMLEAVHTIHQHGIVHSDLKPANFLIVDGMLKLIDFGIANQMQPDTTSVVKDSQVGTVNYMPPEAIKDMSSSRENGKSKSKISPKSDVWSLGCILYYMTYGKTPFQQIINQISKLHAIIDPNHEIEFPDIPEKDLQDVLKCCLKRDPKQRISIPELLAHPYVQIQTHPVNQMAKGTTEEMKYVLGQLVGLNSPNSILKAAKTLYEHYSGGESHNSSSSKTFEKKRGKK
Description: Subsequently, to ascertain whether the high potency of compound 11 was specific for MK2, an additional 380 human recombinant protein kinases were screened.
To assess the impact of various compounds on MK2 kinase activity, we utilized the ADP‐Glo Assay Kit (Promega) following the manufacturer's instructions. Luminescence measurements were taken using a SpectraMax Paradigm reader. The inhibition percentage was calculated using the following formula: ((specific signalDMSO control − specific signal inhibitor)/(specific signalDMSO control)) × 100%. The IC50 values were determined employing dose–response curve fitting via Prism (Graph Pad). Additionally, Eurofins company (Celle Lévescault) conducted the analysis on compound 11’s inhibitory activity against 380 other human recombinant kinases at various concentrations.

Chain of MK2 (P49137 whole entry): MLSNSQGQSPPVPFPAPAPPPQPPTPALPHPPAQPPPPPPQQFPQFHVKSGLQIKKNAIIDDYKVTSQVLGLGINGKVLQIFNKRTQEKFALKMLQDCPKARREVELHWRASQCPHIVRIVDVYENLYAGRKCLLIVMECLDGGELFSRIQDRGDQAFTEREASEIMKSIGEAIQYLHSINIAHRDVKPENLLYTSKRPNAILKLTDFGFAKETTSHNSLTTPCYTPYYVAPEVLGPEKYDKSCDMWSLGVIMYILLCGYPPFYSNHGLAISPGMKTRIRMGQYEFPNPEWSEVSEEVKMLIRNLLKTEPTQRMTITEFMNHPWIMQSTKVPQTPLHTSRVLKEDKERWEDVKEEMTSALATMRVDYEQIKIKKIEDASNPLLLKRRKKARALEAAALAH

C=CC(=O)Nc1cc(-c2cc(-c3cc4c([nH]3)CCNC4=O)ccn2)ccc1OC(F)(F)F [compound 11]
effect on LPS-induced TNF-α, IL-6 and IL-1 mRNA expression [1]: significantly inhibited
MK2 kinase activity after 30 min preincubation with inhibitor and 100-fold dilution (MK2): sustained and potent inhibition of kinase activity
IC50 (TTK): > 1000 nM
inhibition at 0.01 µM (TTK; TTK(h), 10 nM, read-out: Inhibition rate): -1%
inhibition at 0.1 µM (TTK; TTK(h), 100 nM, read-out: Inhibition rate): 7%
inhibition at 1 µM (TTK; TTK(h), 1000 nM, read-out: Inhibition rate): 43%
